Reference: PubChem BioAssay AID2060624 (Molecular Pharmacology Branch, DTP, NCI, 2025)
“And” between values parts separate entries of the source, which are not always exact repeats. Equal values may be shown once.

Tested on: 217524-143-R1-J4-PDC spheroids with HUVEC/MSC, viability
Test: Anticancer human tumor 217524-143-R1-J4-PDC patient-derived pancreatic carcinoma cell line growth inhibition [CLK]
Conditions: for viability, T/C: stronger effect = lower value
Outline: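 Multi-cell-type spheroids combined patient-derived tumor cells with HUVEC endothelial cells and human mesenchymal stem cells. Paired agents were dosed in half-log steps down from about clinical Cmax, or from 10 microM where Cmax was unknown.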

[1] = curve of first compound, second compound 0.0316 µM
[2] = curve of first compound, second compound 0.1 µM
[3] = curve of first compound, second compound 0.316 µM
[4] = curve of first compound, second compound 1 µM
[5] = curve of first compound, second compound 3.16 µM
[6] = curve of first compound, second compound 10 µM
[7] = second compound 0.0316 µM, first compound 0.00316 µM
[8] = second compound 0.0316 µM, first compound 0.01 µM
[9] = second compound 0.0316 µM, first compound 0.0316 µM
[10] = second compound 0.0316 µM, first compound 0.1 µM
[11] = second compound 0.0316 µM, first compound 0.316 µM
[12] = second compound 0.0316 µM, first compound 1 µM
[13] = second compound 0.1 µM, first compound 0.00316 µM
[14] = second compound 0.1 µM, first compound 0.01 µM
[15] = second compound 0.1 µM, first compound 0.0316 µM
[16] = second compound 0.1 µM, first compound 0.1 µM
[17] = second compound 0.1 µM, first compound 0.316 µM
[18] = second compound 0.1 µM, first compound 1 µM
[19] = second compound 0.316 µM, first compound 0.00316 µM
[20] = second compound 0.316 µM, first compound 0.01 µM
[21] = second compound 0.316 µM, first compound 0.0316 µM
[22] = second compound 0.316 µM, first compound 0.1 µM
[23] = second compound 0.316 µM, first compound 0.316 µM
[24] = second compound 0.316 µM, first compound 1 µM
[25] = second compound 1 µM, first compound 0.00316 µM
[26] = second compound 1 µM, first compound 0.01 µM
[27] = second compound 1 µM, first compound 0.0316 µM
[28] = second compound 1 µM, first compound 0.1 µM
[29] = second compound 1 µM, first compound 0.316 µM
[30] = second compound 1 µM, first compound 1 µM
[31] = second compound 3.16 µM, first compound 0.00316 µM
[32] = second compound 3.16 µM, first compound 0.01 µM
[33] = second compound 3.16 µM, first compound 0.0316 µM
[34] = second compound 3.16 µM, first compound 0.1 µM
[35] = second compound 3.16 µM, first compound 0.316 µM
[36] = second compound 3.16 µM, first compound 1 µM
[37] = second compound 10 µM, first compound 0.00316 µM
[38] = second compound 10 µM, first compound 0.01 µM
[39] = second compound 10 µM, first compound 0.0316 µM
[40] = second compound 10 µM, first compound 0.1 µM
[41] = second compound 10 µM, first compound 0.316 µM
[42] = second compound 10 µM, first compound 1 µM
[43] = second compound 0.0316 µM, first compound 3.16 µM
[44] = second compound 0.0316 µM, first compound 10 µM
[45] = second compound 0.1 µM, first compound 3.16 µM
[46] = second compound 0.1 µM, first compound 10 µM
[47] = second compound 0.316 µM, first compound 3.16 µM
[48] = second compound 0.316 µM, first compound 10 µM
[49] = second compound 1 µM, first compound 3.16 µM
[50] = second compound 1 µM, first compound 10 µM
[51] = second compound 3.16 µM, first compound 3.16 µM
[52] = second compound 3.16 µM, first compound 10 µM
[53] = second compound 10 µM, first compound 3.16 µM
[54] = second compound 10 µM, first compound 10 µM
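Further: spheroids exposed to agents for seven days before reading.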
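Wherever viability, T/C is given: 100% = DMSO vehicle control viability.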

COc1c(OCCCN2CCOCC2)ccc2c3n(c(=NC(=O)c4cnc(N)nc4)nc12)CCN3 + CN1CCN(c2cc(C(=O)Nc3cc4cc(-c5cnn(C)c5)ccc4cn3)ccn2)CC1
IC50 [1]: 6.3 nM
IC50 [2]: < 3.16 nM
IC50 [3]: < 3.16 nM
IC50 [4]: < 3.16 nM
IC50 [5]: < 3.16 nM
IC50 [6]: < 3.16 nM
viability, T/C [7]: 72.3%
viability, T/C [8]: 35.1%
viability, T/C [9]: 8.37%
viability, T/C [10]: 4.22%
viability, T/C [11]: 3.38%
viability, T/C [12]: 2.18%
viability, T/C [13]: 40.3%
viability, T/C [14]: 24.1%
viability, T/C [15]: 7.97%
viability, T/C [16]: 4.61%
viability, T/C [17]: 2.58%
viability, T/C [18]: 2.72%
viability, T/C [19]: 18.8%
viability, T/C [20]: 12.1%
viability, T/C [21]: 5.45%
viability, T/C [22]: 3.87%
viability, T/C [23]: 2.75%
viability, T/C [24]: 2.26%
viability, T/C [25]: 2.94%
viability, T/C [26]: 1.77%
viability, T/C [27]: 1.27%
viability, T/C [28]: 1.02%
viability, T/C [29]: 0.59%
viability, T/C [30]: 0.49%
viability, T/C [31]: 0.65%
viability, T/C [32]: 0.68%
viability, T/C [33]: 0.5%
viability, T/C [34]: 0.47%
viability, T/C [35]: 0.5%
viability, T/C [36]: 0.45%
viability, T/C [37]: 0.14%
viability, T/C [38]: 0.14%
viability, T/C [39]: 0.19%
viability, T/C [40]: 0.13%
viability, T/C [41]: 0.25%
viability, T/C [42]: 0.19%

CC(=O)O[C@H]1C(=O)[C@@]2(C)[C@H]([C@H](OC(=O)c3ccccc3)[C@]3(O)C[C@H](OC(=O)[C@H](O)[C@@H](NC(=O)c4ccccc4)c4ccccc4)C(C)=C1C3(C)C)[C@]1(OC(C)=O)CO[C@@H]1C[C@@H]2O + CN1CCN(c2cc(C(=O)Nc3cc4cc(-c5cnn(C)c5)ccc4cn3)ccn2)CC1
IC50 [1]: < 31.6 nM
IC50 [2]: < 31.6 nM
IC50 [3]: < 31.6 nM
IC50 [4]: < 31.6 nM
IC50 [5]: < 31.6 nM
IC50 [6]: < 31.6 nM
viability, T/C [9]: 14.5%
viability, T/C [10]: 10.6%
viability, T/C [11]: 10.8%
viability, T/C [12]: 11.5%
viability, T/C [43]: 12.1%
viability, T/C [44]: 16.4%
viability, T/C [15]: 11.9%
viability, T/C [16]: 12.1%
viability, T/C [17]: 9.82%
viability, T/C [18]: 10.7%
viability, T/C [45]: 10.8%
viability, T/C [46]: 13.2%
viability, T/C [21]: 11.1%
viability, T/C [22]: 11.3%
viability, T/C [23]: 10.7%
viability, T/C [24]: 9.41%
viability, T/C [47]: 11.7%
viability, T/C [48]: 12.3%
viability, T/C [27]: 1.11%
viability, T/C [28]: 1.3%
viability, T/C [29]: 1.35%
viability, T/C [30]: 1.2%
viability, T/C [49]: 2%
viability, T/C [50]: 1.13%
viability, T/C [33]: 0.88%
viability, T/C [34]: 0.73%
viability, T/C [35]: 0.55%
viability, T/C [36]: 0.62%
viability, T/C [51]: 1.1%
viability, T/C [52]: 0.74%
viability, T/C [39]: 0.12%
viability, T/C [40]: 0.17%
viability, T/C [41]: 0.16%
viability, T/C [42]: 0.2%
viability, T/C [53]: 0.34%
viability, T/C [54]: 0.24%

COc1cccc2c1C(=O)c1c(O)c3c(c(O)c1C2=O)CC(O)(C(=O)CO)CC3OC1CC(N)C(O)C(C)O1 (stereo unspecified)
viability, T/C (compound 0.0316 µM): 36.9% and 42.6%
viability, T/C (compound 0.1 µM): 24.5% and 29.6%
viability, T/C (compound 0.316 µM): 26.5% and 27.4%
viability, T/C (compound 1 µM): 16.9% and 18.4%
viability, T/C (compound 3.16 µM): 3.52% and 3.31%
viability, T/C (compound 10 µM): 1.28% and 0.73%
IC50 (curve of compound): < 31.6 nM

O=C(c1cc(Cc2n[nH]c(=O)c3ccccc23)ccc1F)N1CCN(C(=O)C2CC2)CC1
viability, T/C (compound 0.0316 µM): 100% and 92.1%
viability, T/C (compound 0.1 µM): 81.1% and 72%
viability, T/C (compound 0.316 µM): 103% and 91.9%
viability, T/C (compound 1 µM): 89.3% and 89.4%
viability, T/C (compound 3.16 µM): 96.2% and 123%
viability, T/C (compound 10 µM): 86.3% and 79.1%
IC50 (curve of compound): > 10000 nM

CCN1CCN(Cc2ccc(Nc3ncc(F)c(-c4cc(F)c5nc(C)n(C(C)C)c5c4)n3)nc2)CC1 + CN1CCN(c2cc(C(=O)Nc3cc4cc(-c5cnn(C)c5)ccc4cn3)ccn2)CC1
IC50 [1]: 224 nM
IC50 [2]: 11 nM
IC50 [3]: < 3.16 nM
IC50 [4]: < 3.16 nM
IC50 [5]: < 3.16 nM
IC50 [6]: < 3.16 nM
viability, T/C [7]: 93.3%
viability, T/C [8]: 62.5%
viability, T/C [9]: 71.2%
viability, T/C [10]: 60%
viability, T/C [11]: 41%
viability, T/C [12]: 44.6%
viability, T/C [13]: 55.3%
viability, T/C [14]: 53.4%
viability, T/C [15]: 44.8%
viability, T/C [16]: 39%
viability, T/C [17]: 29.1%
viability, T/C [18]: 32.6%
viability, T/C [19]: 23.3%
viability, T/C [20]: 21.7%
viability, T/C [21]: 17.6%
viability, T/C [22]: 17.6%
viability, T/C [23]: 15.8%
viability, T/C [24]: 17.1%
viability, T/C [25]: 2.31%
viability, T/C [26]: 2.94%
viability, T/C [27]: 2.53%
viability, T/C [28]: 3.19%
viability, T/C [29]: 3.76%
viability, T/C [30]: 3.89%
viability, T/C [31]: 0.74%
viability, T/C [32]: 0.96%
viability, T/C [33]: 1.42%
viability, T/C [34]: 1.28%
viability, T/C [35]: 3%
viability, T/C [36]: 4.17%
viability, T/C [37]: 0.23%
viability, T/C [38]: 0.28%
viability, T/C [39]: 0.27%
viability, T/C [40]: 0.28%
viability, T/C [41]: 0.46%
viability, T/C [42]: 0.58%

CC(Nc1ccc2c(c1)OCCn1cc(N3C(=O)OCC3C(F)F)nc1-2)C(N)=O (stereo unspecified)
viability, T/C (compound 0.0316 µM): 77.3% and 57.6%
viability, T/C (compound 0.1 µM): 36% and 29.8%
viability, T/C (compound 0.316 µM): 16.3% and 11.6%
viability, T/C (compound 1 µM): 8.54% and 7.09%
viability, T/C (compound 3.16 µM): 6.58% and 6.55%
viability, T/C (compound 10 µM): 4.15% and 4.2%
IC50 (curve of compound): 67.6 nM and 43.3 nM

CC1(C)CCC(CN2CCN(c3ccc(C(=O)NS(=O)(=O)c4ccc(NCC5CCOCC5)c([N+](=O)[O-])c4)c(Oc4cnc5[nH]ccc5c4)c3)CC2)=C(c2ccc(Cl)cc2)C1
viability, T/C (compound 0.0316 µM): 121% and 110%
viability, T/C (compound 0.1 µM): 89.1% and 75.1%
viability, T/C (compound 0.316 µM): 99.5% and 103%
viability, T/C (compound 1 µM): 89.8% and 80.3%
viability, T/C (compound 3.16 µM): 101% and 86.2%
viability, T/C (compound 10 µM): 10.7% and 79.9%
IC50 (curve of compound): 6030 nM and > 10000 nM

CC1COCCN1c1cc(C2(S(C)(=N)=O)CC2)nc(-c2ccnc3[nH]ccc23)n1 (stereo unspecified) + CN1CCN(c2cc(C(=O)Nc3cc4cc(-c5cnn(C)c5)ccc4cn3)ccn2)CC1
IC50 [1]: 1430 nM
IC50 [2]: 342 nM
IC50 [3]: < 31.6 nM
IC50 [4]: < 31.6 nM
IC50 [5]: < 31.6 nM
IC50 [6]: < 31.6 nM
viability, T/C [9]: 93.1%
viability, T/C [10]: 79.7%
viability, T/C [11]: 63.9%
viability, T/C [12]: 66.3%
viability, T/C [43]: 32.9%
viability, T/C [44]: 18.6%
viability, T/C [15]: 56.7%
viability, T/C [16]: 67.3%
viability, T/C [17]: 43.1%
viability, T/C [18]: 42.3%
viability, T/C [45]: 29.1%
viability, T/C [46]: 16.4%
viability, T/C [21]: 22.1%
viability, T/C [22]: 19.2%
viability, T/C [23]: 17.1%
viability, T/C [24]: 16.1%
viability, T/C [47]: 12.3%
viability, T/C [48]: 11.4%
viability, T/C [27]: 1.72%
viability, T/C [28]: 1.95%
viability, T/C [29]: 2.1%
viability, T/C [30]: 1.89%
viability, T/C [49]: 1.87%
viability, T/C [50]: 1.22%
viability, T/C [33]: 0.77%
viability, T/C [34]: 0.42%
viability, T/C [35]: 0.98%
viability, T/C [36]: 0.65%
viability, T/C [51]: 0.84%
viability, T/C [52]: 1.13%
viability, T/C [39]: 0.21%
viability, T/C [40]: 0.17%
viability, T/C [41]: 0.25%
viability, T/C [42]: 0.29%
viability, T/C [53]: 0.29%
viability, T/C [54]: 0.25%
